Experimental data reported in article PMC2745333 (Molecular Microbiology, 2009).

Biological target: PspF1−275 (Escherichia coli, UniProt P37344)
Assay: analytical gel filtration, ADP-dependent dimer-to-hexamer shift
Type: binding
Conditions: 0.5 mM ADP, 10 μM protein, pH 8.0, 15 mM MgCl2, room temperature

Sequence of PspF1−275 (P37344 1-275): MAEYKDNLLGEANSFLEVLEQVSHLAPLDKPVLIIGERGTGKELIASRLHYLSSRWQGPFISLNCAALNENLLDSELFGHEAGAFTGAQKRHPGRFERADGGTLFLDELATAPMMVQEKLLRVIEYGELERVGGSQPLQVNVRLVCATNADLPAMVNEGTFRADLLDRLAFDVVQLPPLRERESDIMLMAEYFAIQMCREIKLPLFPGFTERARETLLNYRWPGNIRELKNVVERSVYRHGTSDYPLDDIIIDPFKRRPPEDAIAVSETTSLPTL

`Nc1ncnc2c1ncn2[C@@H]1O[C@H](COP(=O)(O)OP(=O)(O)O)[C@@H](O)[C@H]1O` [ADP] was tested, and the “analytical gel filtration, ADP-dependent dimer-to-hexamer shift” value was “dimers (Fig. 4A) in the absence of nucleotide and hexamers in the presence of ADP”.
